In PMC7613620, “Reaction hijacking of tyrosine tRNA synthetase as a whole-of-life-cycle antimalarial strategy” (Science (New York, N.Y.), 2022):

Experiments:
human Atg7 = human Atg7 (Homo sapiens, UniProt O95352); experiment: E1-E2 transthiolation HTRF assay, ATG7 (RH-GABARAP); type: biochemical
Text: (§1) 592 E1-E2 Transthiolation Assays
(§2) 593 An Homogeneous Time-Resolved Fluorescence (HTRF) enzyme assay was employed to evaluate
(§3) 594 compound activity against ATG7 as previously described (11). In this assay, a Flag-tagged ATG8 homolog
(§4) 595 (GABA type A receptor-associated protein; GABARAP) is activated by ATG7 and then transthiolated to a
(§5) 596 GST-tagged E2 (ATG3). The product of the enzyme reaction, Flag-GABARAP-ATG3-GST, is quantified
(§6) 597 by measuring FRET between Europium-Cryptate labelled monoclonal anti-Flag M2 (CisBio International,
598 Cat# 61FG2KLB) and PHYCOLINK goat anti-GST allophycocyanin (Prozyme, PJ252p1). […]
(§7) 606 Compounds were incubated with mature stage V gametocytes ([…], kind gift from Professor Chris Janse
(§8) 607 at Leiden University Medical Center (LUMC), the Netherlands) for 48 hours in 384 well plates before
(§9) 608 gamete formation was triggered by a drop in temperature and addition of xanthurenic acid. […]
(§10) 611 Multiple data sets using different gametocyte cultures were collected on each of two separate days.
(§11) 613 Activity against exoerythrocytic stages
614 Primary human hepatocytes (H1500.H15B+ Lot No. HC10-10 Cryopreserved human hepatocytes)
615 were cultured for 2 days and then overlaid with P. falciparum NF54 sporozoites and compounds.
616 Supernatant was refreshed daily with fresh compounds.

[1] = molecular target: NEDD8-activating enzyme (NAE) (Homo sapiens, UniProt Q8TBC4); experiment: E1-E2 transthiolation HTRF assay, NAE; type: biochemical
Text: as §1, §2, §3, §4, §5, §6
598 Cat# 61FG2KLB) and PHYCOLINK goat anti-GST allophycocyanin (Prozyme, PJ252p1). The activation
599 and transthiolation of ubiquitin by Ubiquitin Activating Enzyme, activation and transthiolation of NEDD8
600 by NEDD8 Activating Enzyme. […]
as §7, §8, §9, §10, §11
614 Primary human hepatocytes (H1500.H15B+ Lot No. HC10-10 Cryopreserved human hepatocytes) […]

in vivo = conditions: male, Sprague-Dawley, rat
Experimental: 625 of 50 mg/kg of compound on day 3 post-infection and measuring the effect on blood parasitemia by
626 microscopic analysis of Giemsa-stained blood smears (on days 3, 4, 5, 6 and 7 post-infection). Mice were
630 Human biological samples were sourced ethically; and their research use was in accord with the terms of
631 the informed consent. All animal studies were ethically reviewed and carried out in accredited facilities in
632 accordance with the relevant country’s directives and the institution’s Policy on the Care, Welfare and
633 Treatment of Animals.
635 Plasma exposure in infected mouse model
636 Compound was administered orally to two mice at 25 mg/kg on days 3, 4, 5, 6 after infection. On day 3,
637 blood samples (20 μL) were obtained at time points up to 24 hours after the first administration. Protein was
638 precipitated with acetonitrile and the remaining compound was assessed by LC-MS/MS in the selected reaction
641 Rat pharmacokinetics (PK) analyses
642 Sprague-Dawley rats (11 weeks old) were sourced from Hilltop Lab Animals, Inc (Scottdale, Pennsylvania,
643 USA). […]
(§12) 648 0.5% formic acid in methanol and the supernatants were analysed by positive ion electrospray LC-MS for
(§13) 649 the administered compound. Non-compartmental pharmacokinetic parameters were calculated from […]
(§14) 660 IGM Genomics Center on the Illumina HiSeq 2500 in RapidRun mode to generate 100bp paired-end reads.

[2] = test system: P. falciparum 3D7 clones selected with ML901 (D4, F7, B11); experiment: In vitro evolved ML901-resistant 3D7 clones, IC50_72h; type: cell-based, Plasmodium falciparum
Experimental: 537 Screening of nucleoside sulfamates for inhibition of the growth of cultures of P. falciparum (3D7).
538 High throughput screening of compounds from the Takeda library was performed by SCYNEXIS, Inc.
539 Jersey City, NJ, USA. Synchronized (5% sorbitol) ring stage parasites (3D7 strain; 1.5% haematocrit; 0.1
540 – 0.5% starting parasitemia) were incubated in 96-well plates, in triplicate, diluted in DMSO, for 72 h in
541 RPMI 1640 supplemented with 10% human serum, 5% CO2, 5% O2, 90% N2. Infected RBCs were lysed
542 with 10 mM Tris HCl, 5 mM EDTA, 0.008% saponin, 0.08% Triton X-100, pH 7.5, containing SYBR
543 Green. Following incubation for 15-60 min, fluorescence signal was assessed. Sigmoidal dose response
544 curves were generated and the IC50 values determined using CLfit curve fitting software from IDBS […]
549 stage parasites (3D7 strain (43)) were incubated with the inhibitors for 72 h and viability was assessed in […]
638 precipitated with acetonitrile and the remaining compound was assessed by LC-MS/MS in the selected reaction […]
as §12, §13, §14

PfYRS = PfYRS (Plasmodium falciparum, UniProt Q8IAR7); experiment: Tyrosine acylation of cognate tRNATyr by PfYRS; type: biochemical
PfYRS, sequence (Q8IAR7 entry or part of it): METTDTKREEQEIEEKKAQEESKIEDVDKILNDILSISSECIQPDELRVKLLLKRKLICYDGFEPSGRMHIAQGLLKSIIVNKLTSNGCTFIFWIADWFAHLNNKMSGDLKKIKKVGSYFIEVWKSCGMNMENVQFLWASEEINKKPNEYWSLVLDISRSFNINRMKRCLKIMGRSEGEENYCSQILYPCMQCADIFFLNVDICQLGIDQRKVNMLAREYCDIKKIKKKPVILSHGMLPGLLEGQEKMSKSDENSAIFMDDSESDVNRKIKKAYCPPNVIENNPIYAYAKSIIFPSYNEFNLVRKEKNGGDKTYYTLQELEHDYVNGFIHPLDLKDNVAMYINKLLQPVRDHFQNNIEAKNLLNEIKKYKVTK

NEDD8-activating enzyme (NAE), sequence (Q8TBC4 whole entry): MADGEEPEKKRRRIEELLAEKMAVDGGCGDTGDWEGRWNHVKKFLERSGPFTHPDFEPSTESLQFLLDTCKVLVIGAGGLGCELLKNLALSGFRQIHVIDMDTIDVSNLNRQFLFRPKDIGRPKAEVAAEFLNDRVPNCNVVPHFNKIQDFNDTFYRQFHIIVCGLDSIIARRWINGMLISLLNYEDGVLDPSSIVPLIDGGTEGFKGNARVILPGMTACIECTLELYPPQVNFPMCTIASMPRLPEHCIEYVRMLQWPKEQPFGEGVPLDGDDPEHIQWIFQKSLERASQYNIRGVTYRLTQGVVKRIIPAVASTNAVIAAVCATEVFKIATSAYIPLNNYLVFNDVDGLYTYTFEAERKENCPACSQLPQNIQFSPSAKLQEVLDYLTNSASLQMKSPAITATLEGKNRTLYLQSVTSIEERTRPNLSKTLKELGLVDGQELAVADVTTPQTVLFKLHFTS
NEDD8-activating enzyme (NAE), sequence (Q13564 whole entry partner): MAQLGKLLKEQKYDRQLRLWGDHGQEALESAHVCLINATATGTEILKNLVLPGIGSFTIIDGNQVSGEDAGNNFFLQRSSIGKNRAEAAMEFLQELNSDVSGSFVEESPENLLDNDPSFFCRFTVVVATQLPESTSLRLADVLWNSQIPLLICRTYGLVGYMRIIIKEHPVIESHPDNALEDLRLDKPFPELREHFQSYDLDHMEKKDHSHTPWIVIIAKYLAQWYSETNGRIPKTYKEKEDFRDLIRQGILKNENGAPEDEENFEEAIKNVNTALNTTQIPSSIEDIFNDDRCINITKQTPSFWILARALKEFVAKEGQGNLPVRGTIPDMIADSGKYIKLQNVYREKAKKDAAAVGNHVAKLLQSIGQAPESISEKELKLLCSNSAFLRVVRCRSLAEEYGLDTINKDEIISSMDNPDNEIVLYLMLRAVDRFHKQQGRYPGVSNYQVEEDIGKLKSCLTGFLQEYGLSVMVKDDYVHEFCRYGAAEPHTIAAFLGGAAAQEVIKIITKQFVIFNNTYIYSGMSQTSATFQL
human Atg7, sequence (O95352 whole entry): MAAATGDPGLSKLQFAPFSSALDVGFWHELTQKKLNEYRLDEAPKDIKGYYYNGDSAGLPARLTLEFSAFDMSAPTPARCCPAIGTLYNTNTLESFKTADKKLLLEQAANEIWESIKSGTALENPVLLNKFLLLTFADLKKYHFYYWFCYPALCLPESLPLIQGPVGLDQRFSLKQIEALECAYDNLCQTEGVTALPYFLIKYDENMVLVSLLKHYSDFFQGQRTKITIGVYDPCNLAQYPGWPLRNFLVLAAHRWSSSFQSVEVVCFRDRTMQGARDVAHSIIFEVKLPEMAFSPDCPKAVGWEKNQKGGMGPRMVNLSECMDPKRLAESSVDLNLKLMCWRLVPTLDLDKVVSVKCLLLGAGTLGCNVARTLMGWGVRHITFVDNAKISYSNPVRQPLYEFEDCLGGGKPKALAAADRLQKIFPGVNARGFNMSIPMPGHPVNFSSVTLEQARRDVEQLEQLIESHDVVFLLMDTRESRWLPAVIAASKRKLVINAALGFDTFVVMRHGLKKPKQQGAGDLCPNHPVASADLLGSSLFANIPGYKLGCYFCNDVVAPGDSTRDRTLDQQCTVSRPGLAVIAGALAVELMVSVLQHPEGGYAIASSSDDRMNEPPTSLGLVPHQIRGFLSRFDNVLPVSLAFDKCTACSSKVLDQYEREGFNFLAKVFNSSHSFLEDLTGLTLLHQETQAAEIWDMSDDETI

## Nc1ncnc2c1c(OC(F)F)nn2[C@@H]1O[C@H](COS(N)(=O)=O)[C@@H](O)[C@H]1O [ML901]
Human Atg7
  IC50: 33 nM
[1]
  IC50: > 1000 nM
In vivo; iv, 1 mg/kg, Vss
  Vd: 4.89 L/kg
In vivo; po, 10 mg/kg, p.o. Cmax
  Cmax: 130 nM
[2]; 3D7 line under increasing compound concentrations over 4 months, versus parent
  reduced sensitivity of selected parasites: 10 fold
[2]; Plasmodium falciparum, 3D7, read-out: IC50_72h, ML901-selected resistant clones
  IC50: 28 nM
PfYRS
  IC50: 53000 nM
